Values quoted from earlier work as cited in US20060286181A1, “Diet supplements for causing fast weight loss, improving daytime energy, promoting nighttime relaxation and sleep, controlling appetite and/or increasing metabolism” (priority 2005, published 2006).
Where two headings read alike, the source gives them in different places.

What was measured:
[1] = at least three clinical trials
[2] = in vivo
[3] = system: benzodiazepine binding site in the gamma-aminobutyric acid receptor type A (GABA(A))
[4] = 8 weeks, overweight subjects
[5] = daily supplementation with moderate exercise, 8 weeks
[6] = not given; remark: listed apart in the source
[7] = not given; remark: listed apart in the source
[8] = meta-analysis of forty double-blind studies
fatty acid synthesis = conditions: rats
ATP:citrate lyase = molecular target: T1, ATP:citrate lyase (Homo sapiens, UniProt P53396)
T1 sequence (P53396 1-1101): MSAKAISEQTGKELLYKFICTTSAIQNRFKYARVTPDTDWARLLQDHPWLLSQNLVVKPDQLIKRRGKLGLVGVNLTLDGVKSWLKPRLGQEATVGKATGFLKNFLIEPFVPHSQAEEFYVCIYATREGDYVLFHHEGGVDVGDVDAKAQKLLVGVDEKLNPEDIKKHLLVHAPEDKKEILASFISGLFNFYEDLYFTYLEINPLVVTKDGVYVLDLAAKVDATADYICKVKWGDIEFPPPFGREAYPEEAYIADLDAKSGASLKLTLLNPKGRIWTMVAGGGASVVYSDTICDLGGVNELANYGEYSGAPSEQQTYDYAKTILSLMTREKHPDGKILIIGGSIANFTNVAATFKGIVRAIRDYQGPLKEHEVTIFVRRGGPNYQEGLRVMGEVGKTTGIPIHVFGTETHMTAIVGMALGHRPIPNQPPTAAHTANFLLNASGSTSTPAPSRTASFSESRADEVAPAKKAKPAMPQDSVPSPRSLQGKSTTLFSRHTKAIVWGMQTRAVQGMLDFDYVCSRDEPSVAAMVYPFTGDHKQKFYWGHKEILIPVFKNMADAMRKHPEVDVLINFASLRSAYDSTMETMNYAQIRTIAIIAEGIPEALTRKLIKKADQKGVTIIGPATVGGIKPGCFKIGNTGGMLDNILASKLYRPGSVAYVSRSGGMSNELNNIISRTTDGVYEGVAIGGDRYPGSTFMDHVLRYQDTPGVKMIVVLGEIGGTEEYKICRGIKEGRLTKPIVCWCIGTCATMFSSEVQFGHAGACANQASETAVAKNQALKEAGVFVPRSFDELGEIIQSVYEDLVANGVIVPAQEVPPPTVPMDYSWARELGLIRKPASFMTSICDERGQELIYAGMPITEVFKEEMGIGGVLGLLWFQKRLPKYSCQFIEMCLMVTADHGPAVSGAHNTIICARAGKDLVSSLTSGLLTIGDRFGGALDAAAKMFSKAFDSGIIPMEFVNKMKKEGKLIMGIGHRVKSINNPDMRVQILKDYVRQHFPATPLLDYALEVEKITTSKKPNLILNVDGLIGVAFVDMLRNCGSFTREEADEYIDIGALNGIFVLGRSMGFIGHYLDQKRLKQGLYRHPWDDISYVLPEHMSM

appetite = conditions: rats
[9] = not given; remark: listed apart in the source
diet-induced weight gain = conditions: mice

## N[C@@H](Cc1c[nH]c2ccc(O)cc12)C(=O)O [Example 5-HTP, 5-hydroxy-L-tryptophan]
[1]
  weight loss, safety and efficacy: safely and effectively to aid in weight loss

## O=c1cc(-c2ccc(O)cc2)oc2cc(O)cc(O)c12 [Apigenin]
[2]
  memory and motor skills: without impairing memory or motor skills
  sedation and locomotor activity: sedation and a reduction in locomotor activity
[3]
  binding to benzodiazepine binding site of GABA(A): can bind

## Chromium Polynicotinate
[4]
  muscle loss: sparing muscle from loss
[4]; vs placebo group
  body fat: significant loss of body fat
Metabolic Syndrome; compared to control groups
  systolic blood pressure: effective in lowering systolic blood pressure
Metabolic Syndrome; compared to controls
  free radical damage in liver and kidney tissue: less free radical damage

## Phosphatidylserine
Clinical trials
  cortisol levels: lower cortisol levels
  stress: reduce stress
human, in vivo
  exercise capacity: increase exercise capacity
  mood: positively affect mood

## [Cr] [chromium, Chromium]
[5]
  blood cholesterol profile: improved blood cholesterol profile
[5]; vs placebo group
  weight loss: increased weight loss
[6]; clinical
  lean mass: increase lean mass
[6]; combined with exercise
  body fat: reduce body fat
[6]; in vivo
  HDL cholesterol: increase HDL

## Cn1c(=O)c2c(ncn2C)n(C)c1=O [caffeine, Caffeine]
Adenosine receptors
  binding to and activation of adenosine receptors: binds to, but does not activate
[7]; in vivo
  basal metabolic rate: increase the basal metabolic rate
[7]; obese women
  weight loss: Significant weight loss
[8]
  physical endurance: increase physical endurance

## O=C(O)CC(O)(C(=O)O)C(O)C(=O)O (centres unmarked) [HCA, Hydroxycitric acid]
Fatty acid synthesis
  fatty acid synthesis: inhibit fatty acid synthesis
ATP:citrate lyase
  inhibition of ATP:citrate lyase: competitive inhibitor
appetite
  appetite: repress appetite
[9]; clinical studies
  caloric intake: reduction caloric intake
[9]; human clinical trials
  safety: demonstrated safety
[9]; human, in vivo
  levels of serotonin: significantly increased
[9]; untrained men and women
  fat oxidation during exercise: increasing fat oxidation

## COc1ccc2[nH]cc(CCNC(C)=O)c2c1 [Melatonin]
diet-induced weight gain
  diet-induced weight gain: reduce diet-induced weight gain
